From the RepoRT retention time repository

Assay: Waters XBridge C18, 0.2 mL/min; A: water + 0.1% formic acid; B: methanol + 0.1% formic acid; gradient (min/%B) 0/10 4/50 17/95 25/95
Settings: stereoisomer not certain

Structure (SMILES) | LC retention time
CC(C)(C(=O)O)c1ccc(C(O)CCCN2CCC(C(O)(c3ccccc3)c3ccccc3)CC2)cc1 (stereo not drawn) | 8.6 min
c1ccc2n[nH]nc2c1 | 5.8 min
CC(C)NCC(O)COc1ccc(COCCOC(C)C)cc1 (stereo not drawn) | 6.7 min
COc1ccc(CN2CCNCC2)c(OC)c1OC | 3.5 min
CC(C)OC(=O)C(C(=O)OC(C)C)=C1SCCS1 | 13 min
CCC1OC(=O)C(C)C(OC2CC(C)(OC)C(O)C(C)O2)C(C)C(OC2OC(C)CC(N(C)C)C2O)C(C)(O)CC(C)C(=NOCOCCOC)C(C)C(O)C1(C)O (stereo not drawn) | 10 min
CCN(CC)CC(=O)Nc1c(C)cccc1C | 5.2 min
CCCCC(=O)N(Cc1ccc(-c2ccccc2-c2nn[nH]n2)cc1)C(C(=O)O)C(C)C (stereo not drawn) | 12 min
Cc1cc(=O)n(-c2ccccc2)n1C | 5.9 min
Cc1cccc(Nc2ccccc2C(=O)O)c1C | 16 min
COCC(=O)N(c1c(C)cccc1C)C(C)C(=O)OC (stereo not drawn) | 10 min
CC(C)NCC(O)COc1ccc(CC(=O)O)cc1 (stereo not drawn) | 4.7 min
CN(C)C(=N)N=C(N)N | 1.2 min
O=C(O)c1ccc(-c2ccccc2-c2nn[nH]n2)cc1 | 7.9 min
Cc1cc(C)nc(NS(=O)(=O)c2ccc(N)cc2)n1 | 5.2 min
CCN(CC)C(=O)c1cccc(C)c1 | 10 min
Cc1cccc2n[nH]nc12 | 7.2 min
CN(C(=O)COc1nc2ccccc2s1)c1ccccc1 | 13 min
CCN1CCCC1CNC(=O)c1cc(S(=O)(=O)CC)c(N)cc1OC (stereo not drawn) | 4.6 min
Cc1cccc2sc3nncn3c12 | 7.3 min
COc1ccc2cc(C(C)C(=O)O)ccc2c1 (stereo not drawn) | 12 min
CCCC1CC(C(=O)NC(C(C)O)C2OC(SC)C(O)C(O)C2O)N(C)C1 (stereo not drawn) | 4.7 min

Structure (SMILES) | LC retention time
CC(C)NCC(O)COc1cccc2ccccc12 (stereo not drawn) | 7.2 min
COc1ccc(C(CN(C)C)C2(O)CCCCC2)cc1 (stereo not drawn) | 6.9 min
CC(C)OP(=O)(OC(C)C)SCc1ccccc1 | 14 min
CC(C)NCC(O)COc1ccc(CC(N)=O)cc1 (stereo not drawn) | 3.5 min
COc1cc(Cc2cnc(N)nc2N)cc(OC)c1OC | 4.7 min
Cc1cc(NS(=O)(=O)c2ccc(N)cc2)no1 | 5.7 min
CC(C)N1C(=O)c2ccccc2NS1(=O)=O | 8.9 min
COc1cccc(C2(O)CCCCC2CN(C)C)c1 (stereo not drawn) | 5.7 min
COC=C(C(=O)OC)c1ccccc1Oc1cc(Oc2ccccc2C#N)ncn1 | 11 min
NC(=O)N1c2ccccc2CC(=O)c2ccccc21 | 8 min
Nc1ccc(S(=O)(=O)Nc2ccccn2)cc1 | 4.4 min
CCC(C)OC(=O)N1CCCCC1CCO (stereo not drawn) | 9.9 min
O=P(c1ccccc1)(c1ccccc1)c1ccccc1 | 11 min
CCCCC1=NC2(CCCC2)C(=O)N1Cc1ccc(-c2ccccc2-c2nn[nH]n2)cc1 | 11 min
CN(C)CCOC(c1ccccc1)c1ccccc1 | 7.4 min
COC(=O)Nc1nc2ccccc2[nH]1 | 4.7 min
CNC(=C[N+](=O)[O-])NCCS(=O)Cc1ccc(CN(C)C)o1 (stereo not drawn) | 1.2 min
Nc1ccc(S(=O)(=O)Nc2nccs2)cc1 | 4.2 min
NC(=O)N1c2ccccc2C=Cc2ccccc21 | 9.3 min
CN=C(NC#N)NCCSCc1nc[nH]c1C | 3.6 min
CNC(=C[N+](=O)[O-])NCCSCc1ccc(CN(C)C)o1 | 5.6 min
